In US6943183B2 (Pfizer Inc, priority 2000, dated 2005):

Molecular target: T1, SF9 affinity purified rat FPT (Rattus norvegicus, UniProt Q02293+Q04631)
T1 construct: made in house; host or cells: Sf9 insect cells
Assay: PFT (FPT) inhibitory activity assay, radiolabeled farnesyl pyrophosphate and biotinyl peptide, streptavidin beads
Format: biochemical
Settings: HEPES buffer pH 7.4, 30° C., 30 minutes; read-out: FTase IC50
Method in brief: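 Rat FPT expressed in SF9 cells was incubated 30 minutes at 30° C. with compound (in 10% DMSO), radiolabeled farnesyl pyrophosphate and biotinylated peptide. Buffer: HEPES pH 7.4, ZnCl2 20 μM, MgCl2 and DTT 5 mM each, 0.1% PEG 8000, 5 mM potassium phosphate (also run without phosphate). Product captured on streptavidin beads in magnesium acetate/H3PO4 stop buffer.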

SMILES | IC50
O=C(O)CCNC(=O)c1ccc(SCc2c(O[C@H](Cn3ccnc3)c3ccccc3)ccc3c2CCCC3=O)cc1 [Compound 170, N-4-{[(2-{[(1S)-2-(1H-Imidazol-1-yl)-1-phenylethyl]oxy}-5-oxo-5,6,7,8-tetrahydro-1-naphthalenyl)methyl]sulfanyl}benzoyl-β-alanine] | 7 nM
N#Cc1ccccc1NCc1c(O[C@H](Cn2ccnc2)c2ccccc2)ccc2c1CCCC2=O [Compound 149, 2-{[2-((S)-2-Imidazol-1-yl-1-phenyl-ethoxy)-5-oxo-5,6,7,8-tetrahydro-napthalen-1-ylmethyl]-amino}-benzonitrile] | 3 nM
O=C(O)CCNC(=O)c1ccc(S(=O)(=O)Cc2c(O[C@H](Cn3ccnc3)c3ccccc3)ccc3c2CCCC3=O)cc1 [Compound 166, N-4-{[(2-{[(1S)-2-(1H-Imidazol-1-yl)-1-phenylethyl]oxy}-5-oxo-5,6,7,8-tetrahydro-1-naphthalenyl)methyl]sulfonyl}benzoyl-β-alanine] | 30 nM
O=C1CCCc2c1ccc(O[C@H](Cn1ccnc1)c1ccccc1)c2CNc1ccc(Br)cc1 [Compound 150, 5-[(4-Bromo-phenylamino)-methyl]-6-((S)-2-imidazol-1-yl-1-phenyl-ethoxy)-3,4-dihydro-2H-napthalen-1-one] | 16 nM
CSCC[C@H](N)C(=O)NCc1c(O[C@H](Cn2ccnc2)c2ccccc2)ccc2c1CCCC2=O [Compound 42k, (S)-2-Amino-N-[2-((S)-2-imidazol-1-yl-1-phenyl-ethoxy)-5-oxo-5,6,7,8-tetrahydro-naphthalen-1-ylmethyl]-4-methylsulfanyl-butyramide] | 16 nM
O=C1CCCc2c1ccc(O[C@H](Cn1ccnc1)c1cccnc1)c2NC(=O)c1cnnc2ccccc12 [Compound 63f, Cinnoline-4-carboxylic acid [2-((S)-2-imidazol-1-yl-1-pyridin-3-yl-ethoxy)-5-oxo-5,6,7,8-tetrahydro-naphthalen-1-yl]-amide] | 13 nM
CCOC(=O)CCNC(=O)c1ccccc1S(=O)(=O)Cc1c(O[C@H](Cn2ccnc2)c2ccccc2)ccc2c1CCCC2=O [Compound 183, Ethyl 3-[(2-{[(2-{[(1S)-2-(1H-Imidazol-1-yl)-1-phenylethyl]oxy}-5-oxo-5,6,7,8-tetrahydro-1-naphthalenyl)methyl]sulfonyl}benzoyl)amino]propanoate] | 7 nM
O=C1CCCc2c1ccc(O[C@H](Cn1ccnc1)c1ccccc1)c2-c1cccc(Cl)c1 [Compound 22, 6-((1S)-2-Imidazolyl-1-phenylethoxy)-5-(3-chlorophenyl)-2,3,4-trihydronaphthalen-1-one] | 26 nM
CC(C)C(Cn1ccnc1)Oc1ccc2c(c1CS(=O)(=O)c1ccccc1)CCCC2=O (centres unmarked) [Compound 63l, 6-[1-(1H-Imidazol-1-ylmethyl)-2-methylpropoxy]-5-[(phenylsulfonyl)methyl]-3,4-dihydro-1(2H)-naphthalenone] | 5.5 nM
CCOC(=O)CCNC(=O)c1ccccc1SCc1c(O[C@H](Cn2ccnc2)c2ccccc2)ccc2c1CCCC2=O [Compound 187, Ethyl 3-[(2-{[(2-{[(1S)-2-(1H-Imidazol-1-yl)-1-phenylethyl]oxy}-5-oxo-5,6,7,8-tetrahydro-1-naphthalenyl)methyl]sulfanyl}benzoyl)amino]propanoate] | 7 nM
C=C(C)Cc1c(O[C@H](Cn2ccnc2)c2ccccc2)ccc2c1CCCC2=O [Compound 54, 6-((1S)-2-Imidazolyl-1-phenylethoxy)-5-(2-methylprop-2-enyl)-2,3,4-trihydronaphthalen-1-one] | 5 nM
O=C1CCCc2c1ccc(O[C@H](Cn1ccnc1)c1ccccc1)c2COc1cccc2cccnc12 [Compound 94] | 3 nM
COC(=O)c1cccc(S(=O)(=O)Cc2c(O[C@H](Cn3ccnc3)c3ccccc3)ccc3c2CCCC3=O)c1 [Compound 156] | 5 nM
O=C(NCCO)c1cccc(SCc2c(O[C@H](Cn3ccnc3)c3ccccc3)ccc3c2CCCC3=O)c1 [Compound 172, N-(2-Hydroxyethyl)-3-{[(2-{[(1S)-2-(1H-imidazol-1-yl)-1-phenylethyl]oxy}-5-oxo-5,6,7,8-tetrahydro-1-naphthalenyl)methyl]sulfanyl}benzamide] | 5 nM
O=C(Cc1ccccn1)Nc1c(O[C@H](Cn2ccnc2)c2ccccc2)ccc2c1CCCC2=O [Compound 39a, N-[2-((S)-2-Imidazol-1-yl-1-phenyl-ethoxy)-5-oxo-5,6,7,8-tetrahydro-naphthalen-1-yl]-2-pyridin-2-yl-acetamide] | 38 nM
O=C(NCCO)c1ccc(SCc2c(O[C@H](Cn3ccnc3)c3ccccc3)ccc3c2CCCC3=O)cc1 [Compound 174, N-(2-Hydroxyethyl)-4-{[(2-{[(1S)-2-(1H-imidazol-1-yl)-1-phenylethyl]oxy}-5-oxo-5,6,7,8-tetrahydro-1-naphthalenyl)methyl]sulfanyl}benzamide] | 3 nM

The next compounds have a lower IC50 than those just listed; values first:

IC50 | SMILES
0.4 nM | C#CCNC(=O)c1ccccc1S(=O)(=O)Cc1c(O[C@H](Cn2ccnc2)c2ccccc2)ccc2c1CCCC2=O [Compound 216, 2-{[(2-{[(1S)-2-(1H-Imidazol-1-yl)-1-phenylethyl]oxy}-5-oxo-5,6,7,8-tetrahydro-1-naphthalenyl)methyl]sulfonyl}-N-(2-propynyl)benzamide]
1.5 nM | O=C1CCCc2c1ccc(O[C@H](Cn1ccnc1)c1ccccc1)c2CNS(=O)(=O)Cc1ccccc1 [Compound 42g]
0.26 nM | CC[C@H](CO)NC(=O)c1ccc(S(=O)(=O)Cc2c(O[C@H](Cn3ccnc3)c3ccccc3)ccc3c2CCCC3=O)cc1 [Compound 241, N-[(1R)-1-(Hydroxymethyl)propyl]-4-{[(2-{[(1S)-2-(1H-imidazol-1-yl)-1-phenylethyl]oxy}-5-oxo-5,6,7,8-tetrahydro-1-naphthalenyl)methyl]sulfonyl}benzamide]
2 nM | O=C1CCCc2c1ccc(O[C@H](Cn1ccnc1)c1ccccc1)c2COc1ccc2c(c1)CCCC2 [Compound 73, 6-((1S)-2-Imidazolyl-1-phenylethoxy)-5-(2-5,6,7,8-tetrahydro-naphthyloxymethyl)-2,3,4-trihydronaphthalen-1-one]
0.4 nM | O=C1CCCc2c1ccc(O[C@H](Cn1ccnc1)c1cccnc1)c2CCc1ccccc1 (single isomer, unassigned) [Compound 63a]
0.4 nM | C[C@H](O)CNC(=O)c1ccc(S(=O)(=O)Cc2c(O[C@H](Cn3ccnc3)c3ccccc3)ccc3c2CCCC3=O)cc1 [Compound 199, N-[(2S)-2-Hydroxypropyl]-4-{[(2-{[(1S)-2-(1H-imidazol-1-yl)-1-phenylethyl]oxy}-5-oxo-5,6,7,8-tetrahydro-1-naphthalenyl)methyl]sulfonyl}benzamide]
0.2 nM | O=C(NC1CCCC1)c1cccc(SCc2c(O[C@H](Cn3ccnc3)c3ccccc3)ccc3c2CCCC3=O)c1 [Compound 221, N-Cyclopentyl-3-{[(2-{[(1S)-2-(1H-imidazol-1-yl)-1-phenylethyl]oxy}-5-oxo-5,6,7,8-tetrahydro-1-naphthalenyl)methyl]sulfanyl}benzamide]
2 nM | O=C(O)c1ccccc1SCc1c(O[C@H](Cn2ccnc2)c2ccccc2)ccc2c1CCCC2=O [Compound 5, 2-{[2-((1S)-2-Imidazolyl-1-phenylethoxy)-5-oxo-6,7,8-trihydronaphenyl]methylthio}benzoic acid]
1.5 nM | O=C(NCc1c(O[C@H](Cn2ccnc2)c2ccccc2)ccc2c1CCCC2=O)c1ccccc1 [Compound 42i, N-[2-((S)-2-Imidazol-1-yl-1-phenyl-ethoxy)-5-oxo-5,6,7,8-tetrahydro-naphthalen-1-ylmethyl]-benzamide]
0.2 nM | CC(O)CNC(=O)c1ccc(SCc2c(O[C@H](Cn3ccnc3)c3ccccc3)ccc3c2CCCC3=O)cc1 (stereo partly drawn) [Compound 256, N-(2-Hydroxypropyl)-4-{[(2-{[(1S)-2-(1H-imidazol-1-yl)-1-phenylethyl]oxy}-5-oxo-5,6,7,8-tetrahydro-1-naphthalenyl)methyl]sulfanyl}benzamide]
0.2 nM | C[C@H](O)CNC(=O)c1ccc(SCc2c(O[C@H](Cn3ccnc3)c3ccccc3)ccc3c2CCCC3=O)cc1 [Compound 196, N-[(2S)-2-Hydroxypropyl]-4-{[(2-{[(1S)-2-(1H-imidazol-1-yl)-1-phenylethyl]oxy}-5-oxo-5,6,7,8-tetrahydro-1-naphthalenyl)methyl]sulfanyl}benzamide]
1.5 nM | O=C1CCCc2c1ccc(O[C@H](Cn1ccnc1)c1ccc(F)cc1F)c2CS(=O)(=O)c1ccccn1 [Compound 63j, (S)-6-[-1-(2,4-Difluoro-phenyl)-2-imidazol-1-yl-1-ethoxy]-5-(pyridin-2-ylsulfonylmethyl)-3,4-dihydro-2H-naphthalen-1-one]
0.2 nM | CC[C@H](CO)NC(=O)c1ccccc1SCc1c(O[C@H](Cn2ccnc2)c2ccccc2)ccc2c1CCCC2=O [Compound 244, N-[(1R)-1-(Hydroxymethyl)propyl]-2-{[(2-{[(1S)-2-(1H-imidazol-1-yl)-1-phenylethyl]oxy}-5-oxo-5,6,7,8-tetrahydro-1-naphthalenyl)methyl]sulfanyl}benzamide]
2 nM | O=C1CCC(c2cccc(Cl)c2)c2cc(O[C@H](Cn3ccnc3)c3ccccc3)ccc21 (stereo partly drawn) [Compound 47, 6-((1S)-2-Imidazolyl-1-phenylethoxy)-4-(3-chlorophenyl)-2,3,4-trihydronaphthalen-1-one]
0.4 nM | CC(C)SCc1c(O[C@H](Cn2ccnc2)c2ccccc2)ccc2c1CCCC2=O [Compound 6, 6-((S)-2-Imidazol-1-yl-1-phenyl-ethoxy)-5-isopropylsulfanylmethyl-2,3,4-trihydronaphthalen-1-one]
0.2 nM | O=C(NC1CC1)c1ccccc1S(=O)(=O)Cc1c(O[C@H](Cn2ccnc2)c2ccccc2)ccc2c1CCCC2=O [Compound 225, N-Cyclopropyl-2-{[(2-{[(1S)-2-(1H-imidazol-1-yl)-1-phenylethyl]oxy}-5-oxo-5,6,7,8-tetrahydro-1-naphthalenyl)methyl]sulfonyl}benzamide]
